The test system of series [1] is liver fibrosis in two rat models. The settings on record: cited from earlier work.
Series [2] has as its system ZSF1 rat model of type 2 diabetes mellitus (T2DM)-induced nephropathy. The settings on record: cited from earlier work.
For series [3] the following is noted: in vivo; cited from earlier work.
Another series deals with patients with ADHF. The settings on record: intravenously administered; cited from earlier work.
For a further series, the system named is intraocular pressure. The settings on record: animal models; cited from earlier work.
Another series deals with sGC. The settings on record: cited from earlier work.
The conditions of series [4]: preclinical species; cited from earlier work.
The conditions of series [5]: humans; cited from earlier work.
The next series has as its system patient with ME/CFS. The settings on record: single patient, history of Giardia Lamblia infection, ME/CFS for 10 years; cited from earlier work.
For series [6] the following is noted: in vivo; cited from earlier work. This is another data set of the same source.
The test system of series [7] is subjects with heart failure with reduced ejection fraction (HfrEF). Particulars: initial dose 2.5 mg, titrated to 10 mg at two-week intervals; cited from earlier work.
The test system of series [8] is post-infectious ME/CFS patients.
In another series the test system is NT-proBNP. Particulars: cited from earlier work.
Another series has as its system healthy subjects. Particulars: cited from earlier work.
Series [9] has as its system endothelial dysfunction (ED) models. The settings on record: preclinical ED models and HF patients; cited from earlier work.
The test system of a further series is isolated sGC. The settings on record: cited from earlier work.
The subject of the next series is platelet aggregation. The settings on record: via stimulation of cGMP synthesis; cited from earlier work.
[10] abbreviates: Vericiguat Pool (2.5 mg, 2.5 to 5 mg, 2.5 to 10 mg groups).

Where two headings read alike, the source gives them in different places.

For `O=C(O)CCCCN(CCc1cc(F)ccc1OCc1ccc(-c2ccc(C(F)(F)F)cc2)cc1)Cc1ccc(C(=O)O)cc1` [BAY 60-2770, 4-({(4-carboxy-butyl)[2-(5-fluoro-2-{[4′-(trifluoromethyl)biphenyl-4-yl]methoxy}phenyl)ethyl]amino}methyl)benzoic acid], the Liver fibrosis entry in series [1] is on record as “attenuates liver fibrosis”.
Regarding `Cc1ccc(OCc2ccc(C(=O)N3CCCCC3)cc2C)c(-c2csc(C3CC4CCC(C3)C4C(=O)O)n2)c1` (stereo not shown) [BI 703704], the In vivo activity entry in [2] was “displaying in vivo activity”.
Turning to `Fc1ccccc1Cc1nc(-c2nc(C(F)(F)F)n[nH]2)cn2ccnc12` [CY6463], the “Crossing of the blood-brain barrier” value in [3] is “readily crosses the blood-brain barrier”.
For the compound `O=C(O)CCCCN(CCc1ccccc1OCc1ccc(CCc2ccccc2)cc1)Cc1ccc(C(=O)O)cc1` [Cinaciguat], the Hemodynamic effect result with patients with ADHF is reported as “potent unloading of the heart with arterial vasodilation”.
With `Cc1cc(C2CCN(C(=O)C3CC3)CC2)ccc1NC1CCc2cccc(-c3cccc(-n4ncc(C(=O)O)c4C)n3)c21` (stereo not shown) [MGV354], the Intraocular pressure result in the series on intraocular pressure is listed as “significantly lowered intraocular pressure”.
Turning to `[N]=O` [NO, nitric oxide], the “Increase of sGC activity” value in the series with sGC was “about 200 fold”.
Regarding `OC(CNc1nc(-c2cc(-c3ccon3)n(Cc3ccccc3F)n2)ncc1F)(C(F)(F)F)C(F)(F)F` [Praliciguat], in [4], the Clearance route entry is “mainly hepatic clearance”, the Half-life result is “long half-life” and the Tissue distribution entry is given as “extensive tissue distribution”. Moreover, the Pharmacokinetic half-life result in series [5] is “consistent with QD dosing”.
With `COC(=O)N(C)c1c(N)nc(-c2nn(Cc3ccccc3F)c3ncccc23)nc1N` [Riociguat], the “Symptoms of ME/CFS” value in the series on patient with ME/CFS is recorded as “some improvement in symptoms”. The “Risk of anemia as side effect” value in [6] is listed as 7.8%.
Take `COC(=O)Nc1c(N)nc(-c2nn(Cc3ccccc3F)c3ncc(F)cc23)nc1N` [Vericiguat]: the “Efficacy in terms of cardiovascular mortality and HF hospitalization” value in [7] is given as “superior to placebo”. In series [8] (1st patient), the Cognitive function entry is on record as “improved”; the “Sensitivity to light and noise” value was “less sensitivity to light and noise”. Further, the Fatigue entry in [8] (1st patient (ME/CFS triggered by COVID), 5 mg) is “improved”. For the same compound, in [8] (1st patient, 5 mg), the “Activity without getting PEM” value is recorded as “much more activity was possible without getting PEM”. The “Quality of life, according to the patient” value in series [8] (2nd patient) was “significantly improved”. Moreover, the “Effect of treatment (mainly cognitive)” value in [8] (2nd patient (postinfectious ME/CFS, Bell of 20), 2.5 mg) was “only a minor positive effect”. Also, the Cognitive ability entry in series [8] (2nd patient, 5 mg, over a period of a few weeks) was “increase in cognitive ability”. In series [8] (2nd patient, compared to prior to treatment), the “Feeling of being sick” value is on record as “reduced”. In series [8] (2nd patient, before medication about 3 days a week), the Headaches entry is given as “almost completely disappeared”. Further, the “Ability for cognitive work without triggering PEM” value in [8] (2nd patient, increased from 1 h) is on record as “more than 2 hours”. Also, in [8] (3rd patient), the Headaches result is listed as “disappeared”, the Muscle fasciculation entry is “decreased” and the Sensitivity to noise entry was “improved”. Besides, in [8] (3rd patient (ME/CFS triggered by COVID), 2 weeks of 5 mg), the Fatigue result is “improved”. Also, the Ability to work in [8] (3rd patient, increased from 1) is 2 to 3 h. Also, in [8] (human, in vivo), the “Drop in blood pressure” value is reported as “no significant drop in blood pressure”, the “Effect on blood pressure” value is reported as “almost no effect on blood pressure” and the Tolerability result is reported as “very good”. Moreover, in the series with NT-proBNP (1.25 mg), the “Difference of Means vs Placebo - log scale, change in log transformed NT-proBNP from baseline to week 12” value is 0.0151 log [pg/mL] and the “Ratio of Geometric Means vs Placebo - Back Transformed, NT-proBNP baseline to week 12” value (shortened to “Ratio of Geometric Means vs Placebo”) is 1.015. In addition, the “Reduction in NT-proBNP at 12 weeks compared to placebo” value in the series on NT-proBNP (2.5 mg titrated at two-week intervals to 10 mg, p=0.0483) is on record as “greatest reduction”. Further, in the series with NT-proBNP (2.5 mg), the “Difference of Means vs Placebo - log scale, change in log transformed NT-proBNP from baseline to week 12” value was −0.0396 log [pg/mL] and the “Ratio of Geometric Means vs Placebo” value was 0.961. In the series with NT-proBNP (2.5 to 5 mg), the “Difference of Means vs Placebo - log scale, change in log transformed NT-proBNP from baseline to week 12” value was −0.0731 log [pg/mL] and the “Ratio of Geometric Means vs Placebo” value was 0.930. Also, in the series on NT-proBNP (2.5 to 10 mg), the “Difference of Means vs Placebo - log scale, change in log transformed NT-proBNP from baseline to week 12” value is −0.2494 log [pg/mL] and the “Ratio of Geometric Means vs Placebo” value is given as 0.779. Moreover, in the series on NT-proBNP (setting [10]), the “Difference of Means vs Placebo - log scale, change in log transformed NT-proBNP from baseline to week 12” value was −0.1220 log [pg/mL] and the “Ratio of Geometric Means vs Placebo” value was 0.885. In addition, the “Secondary analysis: reduction of NT-proBNP at 12 weeks” value in the series on NT-proBNP (across vericiguat doses) is listed as “dose-response relationship”. In the series with NT-proBNP (pooled vericiguat group, 12 weeks), the “Primary efficacy endpoint, change from baseline in log-transformed NT-proBNP vs placebo” value is reported as “not significantly different”. Moreover, the “Risk of anemia as side effect” value in series [6] is reported as 1.9%. In addition, in the series with healthy subjects (estimated in in vitro studies, confirmed in healthy subjects), the PK interaction profile entry is “low”. For the same compound, in the series with healthy subjects (human, in vivo), the “Severity of most treatment-emergent adverse events” value was “mild-to-moderate severity” and the “Tolerability in clinical studies” value was “well-tolerated”. In addition, the Vascular function entry in series [9] was “restores vascular function”.
For the compound `OCc1ccc(-c2nn(Cc3ccccc3)c3ccccc23)o1` [YC-1], in the series on isolated sGC, the “Effect on sGC when combined with NO-releasing compounds” value is recorded as “strong synergistic effect” and the “sGC stimulation after oxidation or removal of the prosthetic heme moiety” value is “loss of stimulation”. The Platelet aggregation result with platelet aggregation is reported as “inhibiting platelet aggregation”.

The values above are taken from patent publication US20250387391A1, “A SOLUBLE GUANYLAT CYCLASE ACTIVATOR FOR TREATING CHRONIC VASCULAR DYSFUNCTION” (Charité - Universitätsmedizin Berlin, priority 2022, published 2025).
